From PubChem BioAssay AID256 (DTP/NCI, 2004)
Values joined by “and” are separate entries in the source; they are usually repeats but may differ in a detail not shown here. Equal entries are not always repeated. Inconclusive results and toxic doses are left out. The calls were made as follows: active = survival T/C of 150% or more; inactive = T/C below 125% in these data.

Test system: CD2F1 mice, L1210 leukemia ip, survival T/C
Test: NCI In Vivo Anticancer Drug Screen. Data for tumor model L1210 Leukemia (intraperitoneal) in CD2F1 (CDF1) mice
Conditions: endpoint: mean survival time, higher = longer survival
How it was run: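 Compound-dosed mice with transplantable tumor versus matched vehicle controls; endpoint ratio T/C reported.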

[1] = dose: 50.0 mg/kg/injection, schedule: Q01DX009 (ip), vehicle: saline
[2] = dose: 100.0 mg/kg/injection, schedule: Q01DX009 (ip), vehicle: saline
[3] = dose: 100.0 mg/kg/injection, schedule: Q01DX009 (ip), vehicle: Klucel (hydroxypropylcellulose) (HPC)
[4] = dose: 200.0 mg/kg/injection, schedule: Q01DX009 (ip), vehicle: Klucel (hydroxypropylcellulose) (HPC)
[5] = dose: 50.0 mg/kg/injection, schedule: Q01DX009 (ip), vehicle: saline with Tween-80
[6] = dose: 100.0 mg/kg/injection, schedule: Q01DX009 (ip), vehicle: saline with Tween-80
[7] = dose: 200.0 mg/kg/injection, schedule: Q01DX009 (ip), vehicle: saline with Tween-80
[8] = dose: 100.0 mg/kg/injection, schedule: Q04DX003 (ip), vehicle: saline with Tween-80
[9] = dose: 200.0 mg/kg/injection, schedule: Q04DX003 (ip), vehicle: saline with Tween-80
[10] = dose: 400.0 mg/kg/injection, schedule: Q01DX009 (ip), vehicle: saline with Tween-80
[11] = dose: 400.0 mg/kg/injection, schedule: Q04DX003 (ip), vehicle: saline with Tween-80
[12] = dose: 12.5 mg/kg/injection, schedule: Q01DX009 (ip), vehicle: saline with Tween-80
[13] = dose: 100.0 mg/kg/injection, schedule: Q01DX001 (ip), vehicle: saline
[14] = dose: 200.0 mg/kg/injection, schedule: Q01DX001 (ip), vehicle: saline
[15] = dose: 400.0 mg/kg/injection, schedule: Q01DX001 (ip), vehicle: saline

Measured: T/C

COC(=O)/C=C\C(=O)O
inactive: [1] 102 % of control | [2] 100 % of control

CN(N=O)c1ccc(CC2CCc3ccccc32)cc1 (stereo unspecified)
inactive: [3] 93 % of control | [4] 98 % of control | dose: 400.0 mg/kg/injection, schedule: Q01DX009 (ip), vehicle: Klucel (hydroxypropylcellulose) (HPC) 101 % of control

CC(C)=CCC/C(C)=C\COC(=N)C(Cl)(Cl)Cl
inactive: [5] 88 % of control | [6] 92 % of control | [7] 92 % of control

CCCCCCCCOC(=O)c1c(Cl)c(Cl)c(C(=O)OCCCCCCCC)c(Cl)c1Cl
inactive: [6] 98 % of control | [8] 97 % of control | [7] 102 % of control | [9] 97 % of control | [10] 96 % of control | [11] 97 % of control

CN(C1=CC(=O)c2ccccc2C1=O)C1CCCCC1
inactive: [8] 93 % of control | [9] 93 % of control | [11] 104 % of control

N#Cc1[nH]nc2ncnc(N)c12
inactive: dose: 6.25 mg/kg/injection, schedule: Q01DX009 (ip), vehicle: saline with Tween-80 100 % of control | [12] 100 % of control | dose: 25.0 mg/kg/injection, schedule: Q01DX009 (ip), vehicle: saline with Tween-80 93 % of control | [5] 91 % of control and 98 % of control

N#C/C(=C\c1c(O)ccc2ccccc12)c1ccc([N+](=O)[O-])cc1
inactive: dose: 66.0 mg/kg/injection, schedule: Q01DX009 (ip), vehicle: saline with Tween-80 88 % of control | [6] 91 % of control and 92 % of control | [8] 91 % of control | dose: 150.0 mg/kg/injection, schedule: Q01DX009 (ip), vehicle: saline with Tween-80 100 % of control | [9] 94 % of control | [11] 91 % of control

CC(C)(COCc1ccccc1)COP(N)(=O)N(CCCl)CCCl (stereo unspecified)
inactive: dose: 25.0 mg/kg/injection, schedule: Q01DX001 (ip), vehicle: other 102 % of control | dose: 50.0 mg/kg/injection, schedule: Q01DX001 (ip), vehicle: other 93 % of control | dose: 100.0 mg/kg/injection, schedule: Q01DX001 (ip), vehicle: other 87 % of control | dose: 200.0 mg/kg/injection, schedule: Q01DX001 (ip), vehicle: other 96 % of control | dose: 400.0 mg/kg/injection, schedule: Q01DX001 (ip), vehicle: other 98 % of control

N#CCCC(C#N)(c1cccnc1)N1CCOCC1 (stereo unspecified)
inactive: dose: 12.5 mg/kg/injection, schedule: Q01DX009 (ip), vehicle: Klucel (hydroxypropylcellulose) (HPC) 93 % of control | dose: 25.0 mg/kg/injection, schedule: Q01DX009 (ip), vehicle: Klucel (hydroxypropylcellulose) (HPC) 97 % of control | dose: 25.0 mg/kg/injection, schedule: Q04DX002 (ip), vehicle: saline with Tween-80 109 % of control

O=S(=O)(O)c1ccc(O)c(S(=O)(=O)O)c1
inactive: [13] 97 % of control | [14] 101 % of control | [15] 97 % of control

CCCN(CCC)S(=O)(=O)c1ccc(NC(=O)OC2CCCC2)cc1
inactive: [13] 104 % of control | [14] 106 % of control | [15] 105 % of control

O=C(O)CNC(=O)COc1ccccc1
inactive: [6] 101 % of control | [8] 101 % of control | [7] 88 % of control | [9] 93 % of control | [10] 90 % of control | [11] 101 % of control

O=[N+]([O-])c1cc(CCl)ccc1CCl
inactive: dose: 75.0 mg/kg/injection, schedule: Q01DX001 (ip), vehicle: other 96 % of control | dose: 150.0 mg/kg/injection, schedule: Q01DX001 (ip), vehicle: other 96 % of control

N#CC(c1ccccc1)C(CC(=O)c1ccccc1)c1ccccc1 (stereo unspecified)
inactive: [6] 88 % of control | [8] 100 % of control | [7] 88 % of control | [9] 96 % of control | [11] 103 % of control

c1ccc(CN2CCOC2)cc1
inactive: dose: 12.5 mg/kg/injection, schedule: Q01DX009 (ip), vehicle: saline 95 % of control and 101 % of control | dose: 25.0 mg/kg/injection, schedule: Q01DX009 (ip), vehicle: saline 97 % of control and 101 % of control | [1] 100 % of control and 106 % of control | [2] 104 % of control and 106 % of control | dose: 200.0 mg/kg/injection, schedule: Q01DX009 (ip), vehicle: saline 95 % of control and 106 % of control

O=C(O)CC(O)(CC(=O)O)C(=O)O
inactive: dose: 60.0 mg/kg/injection, schedule: Q01DX001 (ip), vehicle: saline 106 % of control | [14] 96 % of control | [15] 94 % of control | dose: 800.0 mg/kg/injection, schedule: Q01DX001 (ip), vehicle: saline 100 % of control

O=S(=O)(O)O.[NH-]C(c1ccccc1)C([NH-])c1ccccc1.[Pt+2] (stereo unspecified)
active: dose: 12.5 mg/kg/injection, schedule: Q04DX003 (ip), vehicle: saline with Tween-80 192 % of control | dose: 25.0 mg/kg/injection, schedule: Q04DX003 (ip), vehicle: saline with Tween-80 234 % of control and 197 % of control

Cc1c(C)c2c(c(C)c1OC(=O)CCC(=O)O)CCC(C)(CCCC(C)CCCC(C)CCCC(C)C)O2 (stereo unspecified)
inactive: [8] 102 % of control | [9] 98 % of control | [11] 94 % of control

O=C(CCCCCCCCC(=O)N/N=C\c1ccccc1O)N/N=C\c1ccccc1O
inactive: [12] 97 % of control | [8] 98 % of control | [9] 93 % of control | [11] 93 % of control

COc1ccc2c(c1[N+](=O)[O-])CCCCC2=O
inactive: dose: 50.0 mg/kg/injection, schedule: Q01DX009 (ip), vehicle: other 100 % of control | dose: 100.0 mg/kg/injection, schedule: Q01DX009 (ip), vehicle: other 92 % of control | dose: 200.0 mg/kg/injection, schedule: Q01DX009 (ip), vehicle: other 100 % of control

N#Cc1cnc(N)[nH]c1=O
inactive: dose: 50.0 mg/kg/injection, schedule: Q01DX009 (ip), vehicle: Klucel (hydroxypropylcellulose) (HPC) 88 % of control | [3] 88 % of control | [4] 91 % of control

CCN(C(=O)Nc1cc(OC)ccc1OC)c1ccc(Cl)cc1
inactive: [6] 96 % of control | [7] 96 % of control | [10] 93 % of control

O=C(CNC(=O)Nc1cccc([N+](=O)[O-])c1)N/N=C/c1ccc(F)cc1
inactive: [5] 89 % of control | [6] 93 % of control | [7] 101 % of control

COc1ccc(Cc2cncc3cc(OC)c(OC)cc23)cc1OC
inactive: [13] 101 % of control | [14] 96 % of control

Cc1ccc2c(c1)C(C(F)(F)F)(C(F)(F)F)OC(C(F)(F)F)(C(F)(F)F)N2
inactive: dose: 100.0 mg/kg/injection, schedule: Q01DX001 (ip), vehicle: saline with Tween-80 104 % of control | [6] 95 % of control | dose: 200.0 mg/kg/injection, schedule: Q01DX001 (ip), vehicle: saline with Tween-80 103 % of control | [7] 102 % of control | dose: 400.0 mg/kg/injection, schedule: Q01DX001 (ip), vehicle: saline with Tween-80 95 % of control
